The target of this test is RAC-beta serine/threonine-protein kinase (Homo sapiens, UniProt P31751). As to the kind of experiment: Inhibition of PKBbeta (unknown origin).

pIC50: −log10 of the molar value.

Chain of RAC-beta serine/threonine-protein kinase (P31751 whole entry): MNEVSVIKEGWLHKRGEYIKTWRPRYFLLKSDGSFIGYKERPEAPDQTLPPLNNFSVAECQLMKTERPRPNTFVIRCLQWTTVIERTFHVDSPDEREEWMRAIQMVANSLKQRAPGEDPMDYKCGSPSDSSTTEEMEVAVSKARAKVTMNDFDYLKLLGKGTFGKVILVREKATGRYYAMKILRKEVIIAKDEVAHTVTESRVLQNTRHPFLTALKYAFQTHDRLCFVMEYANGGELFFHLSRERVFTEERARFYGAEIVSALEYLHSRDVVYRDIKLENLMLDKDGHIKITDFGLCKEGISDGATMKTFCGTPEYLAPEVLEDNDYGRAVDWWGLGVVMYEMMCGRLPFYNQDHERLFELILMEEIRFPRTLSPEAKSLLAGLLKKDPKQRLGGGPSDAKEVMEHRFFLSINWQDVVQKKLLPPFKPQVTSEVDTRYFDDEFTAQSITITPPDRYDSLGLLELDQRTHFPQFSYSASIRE

`Cc1ccc2[nH]c(=O)c(C(=O)/C=C/c3nc4ccccc4[nH]3)c(-c3ccccc3)c2c1` showed a pIC50 of 5.79.

The record behind these values is BindingDB's records for doi:10.1016/j.ejmech.2019.01.017 (Qilu University of Technology (Shandong Academy of Sciences), 2019).
